Experimental data as given in patent US20040014217A1, “Methods of transfection” (priority 2000, published 2004).

Assays:
1HAEo-cells [1] = experiment: pEGFP transfection efficiency by flow cytometry, 1HAEo- cells, Example 15; assay type: cell-based, human; details: EGTA 2 mM versus no EGTA
Procedure: Human airway epithelial cell lines, a normal cell line 1HAEo- and a CF cell line 2CFSMEo-, were used in this study. […] The apical medium was then removed and growth medium was added basolateraly to leave the cells growing at an air-liquid interface. Confluent cells were grown for further 10-14 days and were monitored with an ohmmeter (EVOM; World Precision Instruments, Stevenage, UK) until the transepithelial resistance was greater than 300 Ω·cm before transfection. […] Sub-confluent, proliferating cells were prepared by growing the cells for less then 3 days in growth medium prior to transfection.
Briefly, stock solutions of the three components of the LID vector complex were prepared first. Plasmid DNA (component D) was diluted in cell culture medium OptiMEM (Life Technologies, Paisley, UK) at a concentration of 0.01 μg/μl. […] The peptide component I was dissolved in Opti-MEM at 0.1 mg/ml. The lipid component L was Lipofectin, a commercially available equimolar mixture of the cationic lipid N-[1-(2,3-dioleyloxy)propyl]-n,n,n-trimethylammonium chloride (DOTMA) and the neutral lipid dioleoyl phosphotidylethanolamine (DOPE), (Life Technologies, Paisley, UK) and was used from purchase at 1 mg/ml. […]

[2] = tested on: normal and CF epithelial cell lines; experiment: Transfection of sub-confluent and confluent airway epithelial cell lines (summary of description); assay type: cell-based, human
Excerpt: However, all the cell lines tested were transfected under conventional conditions for transfection, that is to say, the cells were sub-confluent. It has been reported that mitosis is required for efficient transformation using cationic liposomes and also when using peptide-based transformation systems (Wilke, 1996; Tseng 1999; Brunner 2000). Confluent cells and/or cells treated with inhibitors of DNA polymerase such as aphidicolin are non-mitotic and transfect with polycationic vectors with low efficiency. The major cell limiting step is considered to be delivery of the transfected nucleic acid into the nucleus. Transportation of the nucleic acid through the cytoplasm to the nucleus is slow and the pores in the nuclear envelope are too small to permit rapid entry of the transfected nucleic acid. It is generally accepted that sub-confluent cultures, in which the cells are dividing, should be used for transfection. We attempted transfection with the transfection complexes of WO98/54347 but using cell line cultures that were confluent i.e. effectively non-mitotic.
The present invention is based on the surprising observation that the use of EGTA with a transfection vector comprising DNA, an integrin-binding component, a polycationic nucleic acid-binding component, and a lipid component, enhances transfection efficiency of confluent cells, which are slowly dividing or non-dividing i.e. substantially non-mitotic cells, in vitro and in vivo.
In accordance with the present invention integrin-targeted transfection vector complexes comprising peptide 6 above, which is an α5β1-targeted peptide, linked to oligolysine comprising 16 lysines i.e. K16, (component I); lipofectin (component L); and a reporter gene (component D) were used with EGTA for transfection. Sub-confluent normal and CF epithelial cell lines were transfected with the green fluorescent report gene and transfection efficiencies of 40 to 50% were achieved. Cells were then cultured in confluent monolayers to model more closely airway structure. […]

confluent 1HAEo-cells = experiment: Binding of FITC-labelled LID complexes to confluent cells; assay type: cell-based, human; details: 2 mM EGTA, 4° C.
Procedure: The effects of EGTA on cell binding were determined by transfection with LID complexes prepared with fluorescein (FITC) labelled peptide. Peptide-12 was labelled with FITC from a labelling kit (Calbiochem, San Diego, USA) and purified by dialyzing in PBS overnight, according to the manufacturer's instruction. The ability of FITC-conjugated peptide-12 to form complexes with plasmid DNA was determined by retardation test, in which the electrophoresis migration of DNA is retarded by forming complexes with the cationic peptide as described previously (Hart et al., 1995). […] The cells were then transfected with apically added LID-FITC for 60 minutes at 4° C., at which the complexes would only bind to cell surface and no internalisation would occur, see(Chu et al (1999), Cornelissen et al (1997), Im et al (1986). The surface binding of the LID complexes was further differentiated from the internalised LID by incubating the cells with 1 μg/ml crystal violet (Sigma, Poole, UK) for 10 minutes at 4° C., to quench the fluorescence of surface-bound LID complexes, see (Ma et al (1997), Van Amers & Van Strijp (1994). The mean numbers of fluorescent particles were then counted in 10 random microscope fields and comparison was made between the data obtained from EGTA-treated or untreated cells.

mouse lung = experiment: Transfection of mouse lungs in vivo (luciferase), intra-tracheal instillation
Procedure: Lipid (lipofectin) (1 mg/ml) and peptide 6 ([sequence]) (1 mg/ml) were mixed in one tube and pCILuc Plasmid DNA (1 mg/ml) and EGTA in phosphate buffer saline (PBS) were mixed together in another tube then the contents of the two tubes were mixed so that the final ratios were 0.75 μg lipid to 1 μg DNA and a final concentration of 100 mM EGTA (or no EGTA for the control). The protocol was repeated to give vector complexes having a final EGTA concentration of 400 mM.
Each mouse received 8 μg of plasmid DNA in a volume of 50 μl.
Cell lysis buffer (Promega, Southampton, England) was added to each lung (4 μl/mg). The tissue was then homogenised two times, on ice, for 30 seconds each time (Polytron PT10-35, Philip Harris, Nottingham, England). Lung homogenates were is centrifuged at 10,000×g at 4 C for 10 minutes, then 20 μl of the supernatant were added to 100 μl of luciferase assay buffer (Promega) and luminescence measured in a luminometer (TD-20/20; Steptech Instruments, Stevenage, England). All results were repeated in triplicate and the mean calculated.
The total protein concentration in the lysate was measured using a protein assay kit (Bio-Rad, Hemel Hempstead, Herts, England) and using bovine serum albumin as a standard. Luciferase activity was expressed in relative light units (RLU) for each sample of lung lysate minus the background and normalised per mg of protein.

1HAEo-cells [3] = experiment: Luminometric luciferase assay, EGTA effects, 1HAEo- cells; assay type: cell-based, human; details: 2 mM EGTA prior to transfection, 2 washes
Procedure: The confluent (A) and subconfluent (B) 1HAEo-cells were transfected with LID complexes after pre-treatment with EGTA (EGTA) or in the presence of EGTA (LID+EGTA).
To enhance the efficiency of transfection in confluent epithelial cells, several agents were tested including EGTA (Sigma, Poole, UK), trypsin/EDTA (Sigma, Poole, UK), water, and mouse anti human E-cadherin antibody (Serotec Ltd, Oxford, UK). It was carried out firstly by comparing the effects of pretreatment of the cells with EGTA, water and Trypsin/EDTA with EGTA formulated into LID vector without pretreatment. […]
Twenty-four hours after transfection with pCI-luciferase, is cells were washed with PBS, lysed by adding 100 μl of Reporter Lysis Buffer (Promega, Southampton, UK) and detached from the plate by manual scraping using micropipette tips. […] The activity of luciferase was assayed with a luciferase assay kit (Promega, Southampton, UK) on a Lucy-1 plate-reading luminometer (Anthos, Salzburg, Austria). The protein concentration of each sample was determined with Protein Assay Reagent (BioRad Laboratories, Hertfordshire, UK) by measuring absorbance at 595 nm and the specific activity of luciferase was expressed as relative light unit per milligram protein (RLU/mg protein).

O=C(O)CN(CCOCCOCCN(CC(=O)O)CC(=O)O)CC(=O)O [EGTA, ethylene glycol-bis(β-aminoethyl ether)-N,N,N′,N′-tetraacetic acid]
increase in transfection efficiency of confluent cells (1HAEo-cells [1]): 4 fold | effect on transfection efficiency of sub-confluent cells [2]: no effect | increase of transfection efficiency of airway epithelial cells in vitro ([2]; green fluorescent protein and luciferase reporter genes): about four-fold | transfection efficiency, confluent cells co-treated with EGTA ([2]; green fluorescent reporter gene): 20 to 30% | binding of LID particles to confluent cells (confluent 1HAEo-cells): greatly increased | enhancement of transfection of mouse lung (luciferase, RLU per mg lung protein) (mouse lung; 100 mM EGTA, 8 μg plasmid DNA in 50 μl, intra-tracheal): about four-fold | lethality (mouse lung; 400 mM EGTA in vivo): lethal in many cases | enhancement of transfection, EGTA pre-treatment protocol, confluent cells (1HAEo-cells [3]): no enhancement
